According to patent publication US11951214B2, “Capsule formulations” (CHEMOCENTRYX, INC., priority 2018, dated 2024):

Assay: Pharmacokinetics of solid solution capsules in dogs
Conditions: male, beagle, dog, in vivo, po, 20 mg, PO 20 mg/dog
Procedure: Solid Solution capsules of Compound 1 comprising 50:50 macrogol-40-glycerol hydroxystearate:PEG-4000 or 100% macrogol-40-glycerol hydroxystearate were prepared using the general procedures described in Example 4. The PEG heating steps were omitted for the 100% macrogol-40 glycerol hydroxystearate formulations. These formulations were dosed in beagle dogs (male) at 20 mg per dog to evaluate the pharmacokinetic profile. The results are summarized in Table 11 (below, and shown in FIG. 8 (50:50 macrogol-40-glycerol hydroxystearate:PEG-4000 and FIG. 9 (100% macrogol-40-glycerol hydroxystearate).

[1] = capsule in 50:50 macrogol-40-glycerol hydroxystearate:PEG-4000, Average of T1-T3
[2] = capsule in 50:50 macrogol-40-glycerol hydroxystearate:PEG-4000, trial T1
[3] = capsule in 50:50 macrogol-40-glycerol hydroxystearate:PEG-4000, trial T2
[4] = capsule in 50:50 macrogol-40-glycerol hydroxystearate:PEG-4000, trial T3
[5] = capsule in 100% macrogol-40-glycerol hydroxystearate, Average of T1-T3
[6] = capsule in 100% macrogol-40-glycerol hydroxystearate, trial T1
[7] = capsule in 100% macrogol-40-glycerol hydroxystearate, trial T2
[8] = capsule in 100% macrogol-40-glycerol hydroxystearate, trial T3

AUC(0-inf) [1]: 1630 ng·h/mL
AUC(0-t) [1]: 1580 ng·h/mL
Cmax [1]: 429 ng/mL
MRT [1]: 4.7 h
Tmax [1]: 1.3 h
AUC(0-inf) [2]: 1310 ng·h/mL
AUC(0-t) [2]: 1260 ng·h/mL
Cmax [2]: 411 ng/mL
MRT [2]: 4.8 h
Tmax [2]: 1 h
AUC(0-inf) [3]: 1440 ng·h/mL
AUC(0-t) [3]: 1390 ng·h/mL
Cmax [3]: 396 ng/mL
MRT [3]: 4.5 h
Tmax [3]: 1 h
AUC(0-inf) [4]: 2150 ng·h/mL
AUC(0-t) [4]: 2080 ng·h/mL
Cmax [4]: 481 ng/mL
MRT [4]: 4.8 h
Tmax [4]: 2 h
AUC(0-inf) [5]: 2440 ng·h/mL
AUC(0-t) [5]: 2370 ng·h/mL
Cmax [5]: 607 ng/mL
MRT [5]: 4.8 h
Tmax [5]: 2.3 h
AUC(0-inf) [6]: 2660 ng·h/mL
AUC(0-t) [6]: 2470 ng·h/mL
Cmax [6]: 590 ng/mL
MRT [6]: 7.1 h
Tmax [6]: 2 h
AUC(0-inf) [7]: 3020 ng·h/mL
AUC(0-t) [7]: 3000 ng·h/mL
Cmax [7]: 604 ng/mL
MRT [7]: 4.2 h
Tmax [7]: 4 h
AUC(0-inf) [8]: 1660 ng·h/mL
AUC(0-t) [8]: 1650 ng·h/mL
Cmax [8]: 628 ng/mL
MRT [8]: 3.2 h
Tmax [8]: 1 h
SMILES: Cc1ccc(NC(=O)[C@H]2CCCN(C(=O)c3c(C)cccc3F)[C@H]2c2ccc(NC3CCCC3)cc2)cc1C(F)(F)F [Compound 1, (2R,3 S)-2-(4-(cyclopentylamino)phenyl)-1-(2-fluoro-6-methylbenzoyl)-N-(4-methyl-3-(trifluoromethyl)phenyl)piperidine-3-carboxamide]
